Assay results: ChEMBL document CHEMBL4052759, “Discovery of DS79182026: A potent orally active hepcidin production inhibitor” (Bioorg Med Chem Lett, 2017)
One block for each compound: values may come before it.

Assays:
[1] = biological target: Serine/threonine-protein kinase pim-2 (Homo sapiens) (UniProt Q9P1W9); assay: Inhibition of PIM2 (unknown origin) at 0.078 uM relative to control
[2] = biological target: Cyclin-dependent kinase 1/cyclin B1 (Homo sapiens) (UniProt P06493+P14635); assay: Inhibition of CDK1/CyclinB (unknown origin) at 0.49 uM relative to control; format: protein-complex assay
[3] = biological target: Tyrosine-protein kinase Fes/Fps (Homo sapiens) (UniProt P07332); assay: Inhibition of FES (unknown origin) at 0.49 uM relative to control
[4] = biological target: Insulin-like growth factor 1 receptor (Homo sapiens) (UniProt P08069); assay: Inhibition of IGF1R (unknown origin) at 0.49 uM relative to control
[5] = biological target: Homeodomain-interacting protein kinase 1 (Homo sapiens) (UniProt Q86Z02); assay: Inhibition of HIPK1 (unknown origin) at 0.45 uM relative to control
[6] = biological target: Discoidin domain-containing receptor 2 (Homo sapiens) (UniProt Q16832); assay: Inhibition of DDR2 (unknown origin) at 0.45 uM relative to control

Insulin-like growth factor 1 receptor (Homo sapiens), sequence (P08069 31-736 limits assumed): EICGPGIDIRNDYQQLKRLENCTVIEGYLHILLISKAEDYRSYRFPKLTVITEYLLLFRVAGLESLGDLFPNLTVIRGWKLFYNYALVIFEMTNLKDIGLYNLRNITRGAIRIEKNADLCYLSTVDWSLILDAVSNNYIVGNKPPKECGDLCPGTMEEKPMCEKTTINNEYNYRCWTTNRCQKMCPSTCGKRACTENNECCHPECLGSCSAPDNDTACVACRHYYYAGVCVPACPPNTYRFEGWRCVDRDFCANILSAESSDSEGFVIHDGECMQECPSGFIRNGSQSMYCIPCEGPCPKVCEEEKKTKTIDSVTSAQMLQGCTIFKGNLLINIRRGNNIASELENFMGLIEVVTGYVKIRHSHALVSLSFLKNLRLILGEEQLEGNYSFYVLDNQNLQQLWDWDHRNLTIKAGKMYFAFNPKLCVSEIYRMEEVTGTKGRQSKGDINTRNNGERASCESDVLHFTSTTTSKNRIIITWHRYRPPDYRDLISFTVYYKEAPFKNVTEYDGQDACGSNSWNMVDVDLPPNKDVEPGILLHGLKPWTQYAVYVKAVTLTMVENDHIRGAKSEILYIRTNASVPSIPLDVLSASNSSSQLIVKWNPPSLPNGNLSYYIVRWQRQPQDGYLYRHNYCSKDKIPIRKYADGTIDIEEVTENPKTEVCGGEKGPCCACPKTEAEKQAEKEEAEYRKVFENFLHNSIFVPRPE
Insulin-like growth factor 1 receptor (Homo sapiens), sequence (P08069 741-1367 limits assumed): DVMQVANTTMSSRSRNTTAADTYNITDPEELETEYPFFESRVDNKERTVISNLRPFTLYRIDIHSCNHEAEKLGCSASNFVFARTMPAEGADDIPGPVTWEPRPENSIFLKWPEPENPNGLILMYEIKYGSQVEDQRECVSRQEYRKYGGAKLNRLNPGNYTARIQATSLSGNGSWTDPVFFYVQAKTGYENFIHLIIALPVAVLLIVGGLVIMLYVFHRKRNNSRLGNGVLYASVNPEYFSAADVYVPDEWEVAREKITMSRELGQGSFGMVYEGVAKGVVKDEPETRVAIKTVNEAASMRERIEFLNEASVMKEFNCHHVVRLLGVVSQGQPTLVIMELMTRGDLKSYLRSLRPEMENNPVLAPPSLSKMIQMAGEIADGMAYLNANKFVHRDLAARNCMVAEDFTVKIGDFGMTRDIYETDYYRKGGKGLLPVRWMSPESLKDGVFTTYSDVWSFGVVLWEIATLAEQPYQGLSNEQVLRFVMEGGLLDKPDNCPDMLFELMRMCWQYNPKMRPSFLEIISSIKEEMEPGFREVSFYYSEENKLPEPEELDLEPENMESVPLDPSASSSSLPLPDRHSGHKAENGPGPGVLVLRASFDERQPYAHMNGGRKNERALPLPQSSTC
Cyclin-dependent kinase 1/cyclin B1 (Homo sapiens), sequence (P06493 whole entry, looked up): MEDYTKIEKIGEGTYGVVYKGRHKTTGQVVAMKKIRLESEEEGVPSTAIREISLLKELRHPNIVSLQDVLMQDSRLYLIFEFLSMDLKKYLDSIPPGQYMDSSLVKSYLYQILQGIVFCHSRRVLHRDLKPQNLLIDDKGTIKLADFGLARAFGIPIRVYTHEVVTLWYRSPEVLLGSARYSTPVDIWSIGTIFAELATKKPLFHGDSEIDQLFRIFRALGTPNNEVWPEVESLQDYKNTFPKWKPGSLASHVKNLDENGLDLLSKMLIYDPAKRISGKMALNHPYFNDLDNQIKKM
Cyclin-dependent kinase 1/cyclin B1 (Homo sapiens), sequence (P14635 whole entry, looked up): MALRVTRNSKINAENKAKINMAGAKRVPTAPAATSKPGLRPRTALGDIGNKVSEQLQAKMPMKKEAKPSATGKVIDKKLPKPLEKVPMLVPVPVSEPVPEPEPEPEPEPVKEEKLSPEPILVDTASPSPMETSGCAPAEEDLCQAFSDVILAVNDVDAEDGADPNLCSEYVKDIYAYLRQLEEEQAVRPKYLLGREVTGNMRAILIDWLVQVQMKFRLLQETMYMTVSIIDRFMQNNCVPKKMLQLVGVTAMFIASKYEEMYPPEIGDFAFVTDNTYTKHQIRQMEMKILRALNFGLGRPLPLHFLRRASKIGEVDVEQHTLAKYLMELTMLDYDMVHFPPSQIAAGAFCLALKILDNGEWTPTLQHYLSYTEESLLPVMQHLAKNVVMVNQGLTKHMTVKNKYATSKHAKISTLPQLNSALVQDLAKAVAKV
Homeodomain-interacting protein kinase 1 (Homo sapiens), sequence (Q86Z02 whole entry, looked up, the tested form may be a part): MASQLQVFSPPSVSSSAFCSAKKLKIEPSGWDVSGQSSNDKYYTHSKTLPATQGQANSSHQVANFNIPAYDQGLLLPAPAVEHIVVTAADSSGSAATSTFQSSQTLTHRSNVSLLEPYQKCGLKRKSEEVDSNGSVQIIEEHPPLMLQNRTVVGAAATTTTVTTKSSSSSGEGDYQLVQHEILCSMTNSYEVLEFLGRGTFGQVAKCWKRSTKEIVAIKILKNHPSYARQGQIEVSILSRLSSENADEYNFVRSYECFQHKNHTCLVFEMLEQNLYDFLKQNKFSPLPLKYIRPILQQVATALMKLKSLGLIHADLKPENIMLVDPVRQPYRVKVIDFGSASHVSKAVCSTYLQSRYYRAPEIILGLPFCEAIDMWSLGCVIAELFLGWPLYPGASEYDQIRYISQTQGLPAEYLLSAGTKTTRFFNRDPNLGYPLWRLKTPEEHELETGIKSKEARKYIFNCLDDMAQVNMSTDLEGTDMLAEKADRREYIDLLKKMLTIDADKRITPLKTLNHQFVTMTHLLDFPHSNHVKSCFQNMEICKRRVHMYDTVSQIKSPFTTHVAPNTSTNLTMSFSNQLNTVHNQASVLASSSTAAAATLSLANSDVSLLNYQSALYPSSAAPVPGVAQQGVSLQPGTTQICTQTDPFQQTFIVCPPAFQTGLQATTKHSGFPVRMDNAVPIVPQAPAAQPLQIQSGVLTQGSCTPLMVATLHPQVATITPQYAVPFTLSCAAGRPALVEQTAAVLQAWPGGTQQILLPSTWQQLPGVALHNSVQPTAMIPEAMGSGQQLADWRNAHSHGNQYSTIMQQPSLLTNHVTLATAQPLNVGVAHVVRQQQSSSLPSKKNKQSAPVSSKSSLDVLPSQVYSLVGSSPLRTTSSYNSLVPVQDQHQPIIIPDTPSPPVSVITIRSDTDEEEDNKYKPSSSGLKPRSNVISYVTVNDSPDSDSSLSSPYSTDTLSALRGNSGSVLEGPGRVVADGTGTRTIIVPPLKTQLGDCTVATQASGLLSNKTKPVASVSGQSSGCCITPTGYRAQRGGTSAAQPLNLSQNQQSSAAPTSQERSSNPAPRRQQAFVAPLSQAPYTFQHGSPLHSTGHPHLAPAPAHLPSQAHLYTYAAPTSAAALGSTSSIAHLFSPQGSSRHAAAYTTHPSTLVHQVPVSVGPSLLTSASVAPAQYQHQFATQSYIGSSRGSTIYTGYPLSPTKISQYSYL
Tyrosine-protein kinase Fes/Fps (Homo sapiens), sequence (P07332 whole entry): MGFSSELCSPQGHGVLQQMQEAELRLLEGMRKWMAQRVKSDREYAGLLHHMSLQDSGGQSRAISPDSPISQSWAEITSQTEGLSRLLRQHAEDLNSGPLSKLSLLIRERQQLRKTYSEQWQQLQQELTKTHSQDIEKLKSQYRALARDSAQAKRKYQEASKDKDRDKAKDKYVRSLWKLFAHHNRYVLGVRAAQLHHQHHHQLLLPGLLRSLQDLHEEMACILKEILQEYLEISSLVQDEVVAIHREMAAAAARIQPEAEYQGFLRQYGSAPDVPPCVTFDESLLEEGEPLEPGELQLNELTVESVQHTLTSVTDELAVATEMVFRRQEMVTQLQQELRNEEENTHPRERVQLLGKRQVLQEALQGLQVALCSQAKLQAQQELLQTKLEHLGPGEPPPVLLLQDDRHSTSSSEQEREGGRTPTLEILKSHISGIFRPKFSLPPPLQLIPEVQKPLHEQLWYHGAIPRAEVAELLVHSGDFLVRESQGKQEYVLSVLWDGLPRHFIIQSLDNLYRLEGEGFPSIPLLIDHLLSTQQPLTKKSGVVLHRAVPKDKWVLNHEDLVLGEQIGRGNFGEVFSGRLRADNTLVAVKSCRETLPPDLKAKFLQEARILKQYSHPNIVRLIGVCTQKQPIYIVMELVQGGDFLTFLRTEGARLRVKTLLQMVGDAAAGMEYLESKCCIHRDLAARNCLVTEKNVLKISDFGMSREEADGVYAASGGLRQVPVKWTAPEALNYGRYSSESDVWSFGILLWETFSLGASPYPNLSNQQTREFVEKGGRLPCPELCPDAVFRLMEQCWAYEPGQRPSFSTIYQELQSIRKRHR
Serine/threonine-protein kinase pim-2 (Homo sapiens), sequence (Q9P1W9 whole entry, looked up): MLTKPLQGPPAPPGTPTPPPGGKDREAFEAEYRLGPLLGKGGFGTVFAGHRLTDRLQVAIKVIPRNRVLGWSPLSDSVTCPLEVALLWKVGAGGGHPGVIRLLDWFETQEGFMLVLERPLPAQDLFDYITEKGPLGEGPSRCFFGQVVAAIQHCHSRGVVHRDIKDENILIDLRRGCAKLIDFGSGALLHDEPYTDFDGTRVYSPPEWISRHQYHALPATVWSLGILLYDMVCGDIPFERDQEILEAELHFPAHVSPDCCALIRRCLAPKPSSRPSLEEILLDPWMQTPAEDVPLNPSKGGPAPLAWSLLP

- inhibition [1]: 1.7%
SMILES: COC(=O)Nc1noc2cc(-c3c(-c4ccccn4)n[nH]c3C)ccc12

- inhibition [2]: 5.3%
- inhibition [3]: -5.3%
- inhibition [4]: 1.3%
SMILES: Cc1[nH]nc(C2CC2)c1-c1ccc2c(NC(=O)C3CC3)noc2c1

- inhibition [5]: 2.7%
- inhibition [6]: 66%
SMILES: Cc1n[nH]c(C)c1-c1ccc2c(NC(=O)c3ccc(N4CCN(C)CC4)cc3)n[nH]c2c1
